Measured values: paper PMC9671780 (Bioorganic Chemistry, 2022)
≈ marks a conversion by molar mass, not a printed value.

Key:
[1] = molecular target: SARS-CoV-2 M^pro (Severe acute respiratory syndrome coronavirus 2, UniProt P0DTD1); assay: biochemical; settings: for IC50: IC50 against SARS-CoV-2 M^pro, Table 1 and text
[2] = tested on: SARS-CoV-2; type: cell-based; settings: for Antiviral Potency Index (API): ratio of % inhibition to that of remdesivir at 10 µM; for SARS-CoV-2 Antiviral Assay (%) inhibition of viral replication: 10 µM
[3] = in vitro; settings: African green monkey, Vero E6 Cytotoxicity (IC50), MTT
[4] = tested on: Vero E6 cells; settings: for IC50: read-out: Vero E6 Cytotoxicity (IC50), MTT
[5] = Enzymatic metabolic stability; type: in vitro ADME
[6] = tested on: TNF-α; assay: Carrageenan-induced paw edema in rats: serum TNF-α; type: in vivo, Sprague Dawley Rat; settings: male rats, 100 mg/kg, 6 h after carrageenan
[7] = tested on: IL-6; assay: Carrageenan-induced paw edema in rats: serum IL-6; type: in vivo, Sprague Dawley Rat; settings: male rats, 100 mg/kg, 6 h after carrageenan
[8] = PBS solubility screening; type: physicochemical; settings: for Solubility note: PBS; for solubility: phosphate-buffered saline, aqueous buffer, kinetic from dmso stock

## Cc1nn(-c2ccc(Cl)cc2)c2c1C(c1ccc(Br)cc1)C(C#N)=C(N)O2 (stereo not drawn) [Compound 19, 6-Amino-4-(4-bromophenyl)-1-(4-chlorophenyl)-3-methyl-1,4-dihydropyrano[2,3-c]pyrazole-5-carbonitrile]
[1]
  IC50: 30.9 ± 1.6 µM
[2]
  Antiviral Potency Index (API): 0.45
[3]
  IC50: 26.2 ± 20 µM

## Cc1nn(-c2ccc(Cl)cc2)c2c1C(c1ccc(I)cc1)C(C#N)=C(N)O2 (stereo not drawn) [Compound 20, 6-Amino-1-(4-chlorophenyl)-4-(4-iodophenyl)-3-methyl-1,4-dihydropyrano[2,3-c]pyrazole-5-carbonitrile]
[1]
  IC50: 69.1 ± 3.5 µM
[2]
  Antiviral Potency Index (API): 0.62
[3]
  IC50: 103 ± 7.8 µM

## COc1cc(C2C(C#N)=C(N)Oc3c2c(C)nn3-c2ccc(Cl)cc2)cc(OC)c1OC (stereo not drawn) [Compound 33, 6-Amino-1-(4-chlorophenyl)-4-(3,4,5-trimethoxyphenyl)-3-methyl-1,4-dihydropyrano[2,3-c]pyrazole-5-carbonitrile]
[1]
  IC50: 22.1 ± 1.1 µM
[2]
  Antiviral Potency Index (API): 0.83
[3]
  IC50: 86.2 ± 6.6 µM

## Cc1nn(-c2ccc(Cl)cc2)c2c1C(c1ccc(O)cc1)C(C#N)=C(N)O2 (stereo not drawn) [Compound 22, 6-Amino-1-(4-chlorophenyl)-4-(4-hydroxyphenyl)-3-methyl-1,4-dihydropyrano[2,3-c]pyrazole-5-carbonitrile]
[1]
  Mode of binding from kinetic analysis: reversibly and non-competitively with non-covalent interactions
[4]
  IC50: 67.7 ± 5.2 µM
[3]
  IC50: > 60 µM

## CCOc1ccc(C2C(C#N)=C(N)Oc3c2c(C)nn3-c2ccc(Cl)cc2)cc1 (stereo not drawn) [Compound 31, 6-Amino-1-(4-chlorophenyl)-4-(4-ethoxyphenyl)-3-methyl-1,4-dihydropyrano[2,3-c]pyrazole-5-carbonitrile]
[1]
  IC50: 4.6 ± 0.25 µM
[2]
  Antiviral Potency Index (API): 0.81
[3]
  IC50: 18.1 ± 1.4 µM

## CC(C)NCC(O)COc1cccc2ccccc12 (stereo not drawn) [Propranolol, reference compound]
[5]; Mean t1/2
  half-life: 2.4 h

## Cc1nn(-c2ccc(Cl)cc2)c2c1C(c1ccc(Cl)cc1Cl)C(C#N)=C(N)O2 (stereo not drawn) [Compound 27, 6-Amino-1-(4-chlorophenyl)-4-(2,4-dichlorophenyl)-3-methyl-1,4-dihydropyrano[2,3-c]pyrazole-5-carbonitrile]
[1]
  Mode of binding from kinetic analysis: reversibly and non-competitively with non-covalent interactions
[2]
  SARS-CoV-2 Antiviral Assay (%) inhibition of viral replication: 91.23 ± 0.25%
  Antiviral Potency Index (API): 0.98
[6]
  Serum level of TNF-α: 385 pg/mL
[7]
  Serum level of IL-6: 64 pg/mL
[8]
  Solubility note: Moderate aqueous solubility
  solubility: 22.4 µM (≈ 9.67 µg/mL)
[5]
  Metabolic rate: intermediate clearance rate
  microsomal CLint: 54.6 µL/min/mg
[5]; Intrinsic half-life (t1/2)
  half-life: > 2 h
[5]; Mean t1/2
  half-life: 2.23 h
[4]
  IC50: 62 ± 4.7 µM
[3]
  IC50: > 60 µM

## Cc1nn(-c2ccc(Cl)cc2)c2c1C(c1cccc(Cl)c1Cl)C(C#N)=C(N)O2 (stereo not drawn) [Compound 26, 6-Amino-1-(4-chlorophenyl)-4-(2,3-dichlorophenyl)-3-methyl-1,4-dihydropyrano[2,3-c]pyrazole-5-carbonitrile]
[3]
  IC50: 34.8 ± 2.7 µM

## Cc1nn(-c2ccc(Cl)cc2)c2c1C(c1ccc(F)cc1F)C(C#N)=C(N)O2 (stereo not drawn) [Compound 25, 6-Amino-1-(4-chlorophenyl)-4-(2,4-difluorophenyl)-3-methyl-1,4-dihydropyrano[2,3-c]pyrazole-5-carbonitrile]
[1]
  IC50: 192 ± 9.8 µM
[2]
  Antiviral Potency Index (API): 0.52
[3]
  IC50: 47.6 ± 3.6 µM

## COc1ccc(C2C(C#N)=C(N)Oc3c2c(C)nn3-c2ccc(Cl)cc2)cc1 (stereo not drawn) [Compound 21, 6-Amino-1-(4-chlorophenyl)-4-(4-methoxyphenyl)-3-methyl-1,4-dihydropyrano[2,3-c]pyrazole-5-carbonitrile]
[1]
  IC50: 24.6 ± 1.2 µM
[2]
  Antiviral Potency Index (API): 0.49
[3]
  IC50: 78.1 ± 5.9 µM

## Cc1nn(-c2ccc(Cl)cc2)c2c1C(c1cc(Cl)ccc1Cl)C(C#N)=C(N)O2 (stereo not drawn) [Compound 28, 6-Amino-1-(4-chlorophenyl)-4-(2,5-dichlorophenyl)-3-methyl-1,4-dihydropyrano[2,3-c]pyrazole-5-carbonitrile]
[3]
  IC50: 131 ± 10 µM

## Cc1nn(-c2ccc(Cl)cc2)c2c1C(c1ccc([N+](=O)[O-])cc1)C(C#N)=C(N)O2 (stereo not drawn) [Compound 23, 6-Amino-1-(4-chlorophenyl)-4-(4-nitrophenyl)-3-methyl-1,4-dihydropyrano[2,3-c]pyrazole-5-carbonitrile]
[1]
  IC50: 9.5 ± 0.51 µM
[2]
  Antiviral Potency Index (API): 0.64
[3]
  IC50: 113 ± 8.6 µM

## CCC(CC)COC(=O)[C@H](C)N[P@](=O)(OC[C@H]1O[C@@](C#N)(c2ccc3c(N)ncnn23)[C@H](O)[C@@H]1O)Oc1ccccc1 [Remdesivir, reference compound]
[4]; at 60 μM
  Cytotoxicity to Vero E6 cells: no cytotoxicity
[3]
  IC50: 61.8 ± 4.7 µM

## CO[C@H]1/C=C/O[C@@]2(C)Oc3c(C)c(O)c4c(O)c(c(/C=N/N5CCN(C)CC5)c(O)c4c3C2=O)NC(=O)/C(C)=C\C=C\[C@H](C)[C@H](O)[C@@H](C)[C@@H](O)[C@@H](C)[C@H](OC(C)=O)[C@@H]1C [Rifampicin, reference compound]
[8]
  Solubility note: Reference with good solubility
  solubility: 179 µM (≈ 148 µg/mL)

## Cc1nn(-c2ccc(Cl)cc2)c2c1C(c1ccc(-c3ccccc3)cc1)C(C#N)=C(N)O2 (stereo not drawn) [Compound 24, 4-([1,1′-Biphenyl]-4-yl)-6-amino-1-(4-chlorophenyl)-3-methyl-1,4-dihydropyrano[2,3-c]pyrazole-5-carbonitrile]
[1]
  IC50: 39.8 ± 2.2 µM
[2]
  Antiviral Potency Index (API): 0.54
[3]
  IC50: 60.7 ± 4.6 µM

## Cc1nn(-c2ccc(Cl)cc2)c2c1C(c1ccc(Cl)cc1)C(C#N)=C(N)O2 (stereo not drawn) [Compound 18, 6-Amino-1-(4-chlorophenyl)-4-(4-chlorophenyl)-3-methyl-1,4-dihydropyrano[2,3-c]pyrazole-5-carbonitrile]
[1]
  IC50: 12.8 ± 0.6 µM
[2]
  Antiviral Potency Index (API): 0.74
[3]
  IC50: 60.5 ± 4.6 µM

## Cc1nn(-c2ccc(Cl)cc2)c2c1C(c1c(Cl)cccc1Cl)C(C#N)=C(N)O2 (stereo not drawn) [Compound 29, 6-Amino-1-(4-chlorophenyl)-4-(2,6-dichlorophenyl)-3-methyl-1,4-dihydropyrano[2,3-c]pyrazole-5-carbonitrile]
[1]
  IC50: 44.6 µM
[2]
  Antiviral Potency Index (API): 0.50
[3]
  IC50: 63.3 ± 4.8 µM

## Cc1nn(-c2ccc(Cl)cc2)c2c1C(c1ccc(Cl)c(Cl)c1)C(C#N)=C(N)O2 (stereo not drawn) [Compound 30, 6-Amino-1-(4-chlorophenyl)-4-(3,4-dichlorophenyl)-3-methyl-1,4-dihydropyrano[2,3-c]pyrazole-5-carbonitrile]
[2]
  SARS-CoV-2 Antiviral Assay (%) inhibition of viral replication: 27.84 ± 0.14%
  Antiviral Potency Index (API): 0.30
[3]
  IC50: 66.5 ± 5.1 µM

## COc1cc(C2C(C#N)=C(N)Oc3c2c(C)nn3-c2ccc(Cl)cc2)ccc1O (stereo not drawn) [Compound 32, 6-Amino-1-(4-chlorophenyl)-4-(4-hydroxy-3-methoxyphenyl)-3-methyl-1,4-dihydropyrano[2,3-c]pyrazole-5-carbonitrile]
[3]
  IC50: 45.7 ± 3.5 µM
